Laboratory results from PubChem BioAssay (NCI).
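Protocol summary: plate cells (96-well), add compound at 5 concentrations, incubate 48 h, interpolate endpoints linearly. The concentration for 50% growth inhibition is given as GI50. TGI is the concentration that stops growth completely.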

Key:
Test in all cases: growth of human tumour cells (NCI), 48 h; in the data active = GI50 below about 0.43 µM; inactive = the rest
[1] = tested on: U251 CNS
[2] = tested on: CCRF-CEM leukemia
[3] = tested on: LOX IMVI melanoma
[4] = tested on: UACC-62 melanoma
[5] = tested on: MDA-MB-231 breast
[6] = tested on: 786-0 renal
[7] = tested on: SR leukemia
[8] = tested on: EKVX NSCLC
[9] = tested on: COLO 205 colon
[10] = tested on: NCI/ADR-RES ovarian
[11] = tested on: MDA-MB-435
[12] = tested on: SF-295 CNS
[13] = tested on: OVCAR-8 ovarian
[14] = tested on: NCI-H522 lung
[15] = tested on: HOP-62 NSCLC
[16] = tested on: SF-268 CNS
[17] = tested on: CAKI-1 renal
[18] = tested on: PC-3 prostate
[19] = tested on: SK-MEL-5 melanoma
[20] = tested on: MOLT-4 leukemia
[21] = tested on: HT29 colon
[22] = tested on: MCF7 breast
[23] = tested on: RXF 393 renal
[24] = tested on: SK-MEL-2 melanoma
[25] = tested on: HOP-92 NSCLC
[26] = tested on: NCI-H460 lung
[27] = tested on: NCI-H226 lung
[28] = tested on: A498 renal
[29] = tested on: SN12C renal
[30] = tested on: HCT-15 colon
[31] = tested on: NCI-H23 lung
[32] = tested on: HS 578T breast
[33] = tested on: DU-145 prostate
[34] = tested on: TK-10 renal
[35] = tested on: K-562 leukemia
[36] = tested on: BT-549 breast
[37] = tested on: OVCAR-4 ovarian
[38] = tested on: ACHN renal
[39] = tested on: OVCAR-5 ovarian
[40] = tested on: M14 melanoma
[41] = tested on: OVCAR-3 ovarian
[42] = tested on: SNB-75 CNS
[43] = tested on: UO-31 renal
[44] = tested on: IGROV1 ovarian
[45] = tested on: RPMI-8226 leukemia
[46] = tested on: SK-MEL-28 melanoma
[47] = tested on: MALME-3M melanoma
[48] = tested on: MDA-MB-468 breast
[49] = tested on: SK-OV-3 ovarian
[50] = tested on: A549 NSCLC
[51] = tested on: UACC-257 melanoma
[52] = tested on: SF-539 CNS
[53] = tested on: KM12 colon
[54] = tested on: HL-60(TB) leukemia
[55] = tested on: T-47D breast
[56] = tested on: SNB-19 CNS
[57] = tested on: SW-620 colon
[58] = tested on: HCC-2998 colon
[59] = tested on: HCT-116 colon

O=C(NO)c1ccc(CN2CCN(c3nc(-c4ccccc4)c4ccccc4n3)CC2)cc1
19.1 µM: TGI [6]
8.5 µM: TGI [26]
13.3 µM: TGI [27]
13.5 µM: TGI [49]
21.6 µM: TGI [25]
7.92 µM: TGI [52]
20.2 µM: TGI [17] | TGI [59]
15.1 µM: TGI [41] | TGI [57]
20.7 µM: TGI [16]
11 µM: TGI [5] | TGI [12] | TGI [44]
7.77 µM: TGI [30]
19.4 µM: TGI [29]
inactive: GI50 [1] 6.19 µM | GI50 [2] 2.89 µM | GI50 [3] 2.97 µM | GI50 [4] 3.74 µM | GI50 [5] 3.4 µM | GI50 [6] 5.81 µM | GI50 [7] > 23.7 µM | GI50 [8] 4.94 µM | GI50 [9] 5.13 µM | GI50 [10] 3.24 µM | GI50 [11] 6.64 µM | GI50 [12] 4.5 µM | GI50 [13] 4.78 µM | GI50 [14] 4.57 µM | GI50 [15] 8.88 µM | GI50 [16] 6.59 µM | GI50 [17] 5.15 µM | GI50 [18] 4.18 µM | GI50 [19] 3.67 µM | GI50 [20] 5.59 µM | GI50 [21] 5.75 µM | GI50 [22] 4.4 µM | GI50 [23] 2.9 µM | GI50 [24] 7.78 µM | GI50 [25] 5.02 µM | GI50 [26] 3.66 µM | GI50 [27] 4.09 µM | GI50 [28] 8.03 µM | GI50 [29] 5.65 µM | GI50 [30] 1.08 µM | GI50 [31] 3.67 µM | GI50 [32] 7.85 µM | GI50 [33] 5.63 µM | GI50 [34] 7.04 µM | GI50 [35] 5.8 µM | GI50 [36] 8.64 µM | GI50 [37] 4.3 µM | GI50 [38] 4.06 µM | GI50 [39] 4.61 µM | GI50 [40] 6.26 µM | GI50 [41] 4.32 µM | GI50 [42] 3.76 µM | GI50 [43] 3 µM | GI50 [44] 4.55 µM | GI50 [45] 5.6 µM | GI50 [46] 6.83 µM | GI50 [47] 5.2 µM | GI50 [48] 2.74 µM | GI50 [49] 5.61 µM | GI50 [50] 4.57 µM | GI50 [51] 6.94 µM | GI50 [52] 3.97 µM | GI50 [53] 7.77 µM | GI50 [54] 6.99 µM | GI50 [55] 6.05 µM | GI50 [56] 6.27 µM | GI50 [57] 4.8 µM | GI50 [58] 4.03 µM | GI50 [59] 2.95 µM
18.3 µM: TGI [47]
12.4 µM: TGI [39]
17 µM: TGI [33]
8.28 µM: TGI [4]
23.2 µM: TGI [55]
23.4 µM: TGI [22]
7.24 µM: TGI [43]
12.3 µM: TGI [9]
> 23.7 µM: TGI [1] | TGI [2] | TGI [7] | TGI [11] | TGI [15] | TGI [18] | TGI [20] | TGI [21] | TGI [24] | TGI [28] | TGI [32] | TGI [34] | TGI [35] | TGI [36] | TGI [37] | TGI [40] | TGI [42] | TGI [45] | TGI [46] | TGI [51] | TGI [53] | TGI [54] | TGI [56]
10.2 µM: TGI [38]
6.91 µM: TGI [19]
14.1 µM: TGI [14]
12.9 µM: TGI [13]
6.12 µM: TGI [3]
8.53 µM: TGI [23]
11.8 µM: TGI [8]
7.23 µM: TGI [48]
7.86 µM: TGI [10]
9.97 µM: TGI [58]
11.5 µM: TGI [50]
7.89 µM: TGI [31]
